Reference: US6613879B1, “FAP-activated anti-tumour compounds” (Boehringer Ingelheim Pharma KG, priority 1999, dated 2003)
Residues, ends and D or L forms follow the SMILES beside them. *: point of attachment. NH(4-MeO-2-naphthyl) = COc1cc(N*)cc2ccccc12; AFC = O=c1cc(C(F)(F)F)c2ccc(N*)cc2o1; Cbz = O=C(OCc1ccccc1)*

What was measured:
FAPα dimers = biological target: T1, FAPα dimers (Homo sapiens, UniProt Q12884); conditions: membrane overlay assay; cited from earlier work
T1 sequence (Q12884 1-760): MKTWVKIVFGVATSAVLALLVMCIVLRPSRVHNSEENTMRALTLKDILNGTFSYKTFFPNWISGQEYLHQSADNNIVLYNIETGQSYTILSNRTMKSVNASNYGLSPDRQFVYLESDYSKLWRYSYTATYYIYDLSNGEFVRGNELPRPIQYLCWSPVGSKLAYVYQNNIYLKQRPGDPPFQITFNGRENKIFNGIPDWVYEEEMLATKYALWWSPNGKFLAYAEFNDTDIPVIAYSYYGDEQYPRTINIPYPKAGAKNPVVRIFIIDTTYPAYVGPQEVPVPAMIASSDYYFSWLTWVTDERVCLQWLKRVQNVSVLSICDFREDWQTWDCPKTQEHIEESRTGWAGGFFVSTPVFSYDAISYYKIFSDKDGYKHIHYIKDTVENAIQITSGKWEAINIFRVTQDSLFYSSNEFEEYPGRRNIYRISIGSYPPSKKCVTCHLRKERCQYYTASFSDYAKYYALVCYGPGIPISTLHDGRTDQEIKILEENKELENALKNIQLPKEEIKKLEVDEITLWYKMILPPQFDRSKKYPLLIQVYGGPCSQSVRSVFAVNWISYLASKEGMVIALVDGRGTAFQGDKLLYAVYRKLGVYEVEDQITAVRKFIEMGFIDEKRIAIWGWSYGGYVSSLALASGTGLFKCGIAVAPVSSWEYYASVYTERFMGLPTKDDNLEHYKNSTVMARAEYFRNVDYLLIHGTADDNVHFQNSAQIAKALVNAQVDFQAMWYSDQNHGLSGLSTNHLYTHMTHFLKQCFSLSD

[1] = biological target: T2, FAPα enzyme derived from membrane extracts of the 293-I/2 transfected cells (Homo sapiens, UniProt Q12884); test: FAPα-catalyzed cleavage of 4-methoxy-β-napthylamide (MNA)-peptide conjugates, enzyme kinetics; assay type: biochemical; conditions: release of free MNA, fluorimeter 355 nm/405 nm
T2 construct: made in house; host or cells: human embryonic kidney 293 cells, clone 293-I/2, membrane extract
T2 sequence (Q12884 1-760): T1 sequence (Q12884 1-760)
Procedure: (§1) Release of free MNA from the peptides was then measured in a Cytofluor fluorimeter (Per-Septive Biosystems, Inc.) using the 355 nm excitation/405 nm emission filter set.

FAPα = biological target: T3, FAPα (Homo sapiens, UniProt Q12884); test: Cleavage specificity of MNA-peptide conjugates, FAPα; assay type: biochemical; conditions: release of free MNA
T3 sequence (Q12884 1-760): T1 sequence (Q12884 1-760)
Procedure: as §1
(§2) Among the-known prolyl-specific serine oligopeptidase family members, the most closely related enzyme to FAPα is DPP-IV. Since active DPP-IV is found in plasma and on many different cell types, optimization of the relative (optional) selectivity of prodrug peptidics for FAPα compared to DPP-IV is necessary to reduce undesirable conversion of the prodrug at sites other than the tumor (e.g., in the plasma). To identify peptides specific for FAPα, cleavage of MNA-coupled peptides by FAPα was compared to the ability of DPP-IV to cleave the same peptide conjugates.

DPP-IV = DPP-IV (Homo sapiens, UniProt P27487); test: Cleavage specificity of MNA-peptide conjugates, DPP-IV; assay type: biochemical; conditions: release of free MNA
Chain of DPP-IV (P27487 whole entry, species assumed): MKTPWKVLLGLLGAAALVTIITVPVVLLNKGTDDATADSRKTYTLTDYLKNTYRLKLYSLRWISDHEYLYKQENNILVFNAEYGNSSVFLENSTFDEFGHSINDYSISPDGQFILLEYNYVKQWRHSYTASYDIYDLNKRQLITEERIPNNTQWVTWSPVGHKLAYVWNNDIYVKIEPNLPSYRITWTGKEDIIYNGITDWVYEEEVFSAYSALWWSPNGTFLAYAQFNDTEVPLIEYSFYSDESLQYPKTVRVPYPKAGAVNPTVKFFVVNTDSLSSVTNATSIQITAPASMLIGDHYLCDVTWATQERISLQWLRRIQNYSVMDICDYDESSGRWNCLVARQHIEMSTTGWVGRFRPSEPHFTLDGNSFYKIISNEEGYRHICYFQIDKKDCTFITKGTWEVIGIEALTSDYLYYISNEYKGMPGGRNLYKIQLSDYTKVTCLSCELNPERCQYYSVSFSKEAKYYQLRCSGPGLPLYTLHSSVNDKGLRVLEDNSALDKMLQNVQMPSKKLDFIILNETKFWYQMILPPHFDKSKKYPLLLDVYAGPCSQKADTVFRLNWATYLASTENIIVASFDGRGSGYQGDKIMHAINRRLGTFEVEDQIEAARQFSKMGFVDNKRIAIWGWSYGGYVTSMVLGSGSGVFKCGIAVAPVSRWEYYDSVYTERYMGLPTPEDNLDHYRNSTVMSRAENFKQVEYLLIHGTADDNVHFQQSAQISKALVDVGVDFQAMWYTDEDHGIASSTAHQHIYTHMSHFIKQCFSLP
Procedure: as §1, §2

[2] = biological target: T4, soluble recombinant FAPα (FAPmCD8 fusion protein) (UniProt P01731+Q12884); test: Cleavage of doxorubicin-peptide conjugates by soluble recombinant FAPα (HPLC release of free doxorubicin); assay type: biochemical, human; conditions: for Cleavage by FAP: after 20 h
T4 construct: the extracellular domain of FAPα (amino acids 27 to 760), generating a fusion protein construct, FAPmCD8; extracellular domain of murine CD8α (Genbank M12825), N-terminal 189 amino acids (N); made in house; host or cells: High Five insect cells, recombinant baculovirus (pVL1393; amplified in Sf9)
T4 sequence (P01731+Q12884 fused): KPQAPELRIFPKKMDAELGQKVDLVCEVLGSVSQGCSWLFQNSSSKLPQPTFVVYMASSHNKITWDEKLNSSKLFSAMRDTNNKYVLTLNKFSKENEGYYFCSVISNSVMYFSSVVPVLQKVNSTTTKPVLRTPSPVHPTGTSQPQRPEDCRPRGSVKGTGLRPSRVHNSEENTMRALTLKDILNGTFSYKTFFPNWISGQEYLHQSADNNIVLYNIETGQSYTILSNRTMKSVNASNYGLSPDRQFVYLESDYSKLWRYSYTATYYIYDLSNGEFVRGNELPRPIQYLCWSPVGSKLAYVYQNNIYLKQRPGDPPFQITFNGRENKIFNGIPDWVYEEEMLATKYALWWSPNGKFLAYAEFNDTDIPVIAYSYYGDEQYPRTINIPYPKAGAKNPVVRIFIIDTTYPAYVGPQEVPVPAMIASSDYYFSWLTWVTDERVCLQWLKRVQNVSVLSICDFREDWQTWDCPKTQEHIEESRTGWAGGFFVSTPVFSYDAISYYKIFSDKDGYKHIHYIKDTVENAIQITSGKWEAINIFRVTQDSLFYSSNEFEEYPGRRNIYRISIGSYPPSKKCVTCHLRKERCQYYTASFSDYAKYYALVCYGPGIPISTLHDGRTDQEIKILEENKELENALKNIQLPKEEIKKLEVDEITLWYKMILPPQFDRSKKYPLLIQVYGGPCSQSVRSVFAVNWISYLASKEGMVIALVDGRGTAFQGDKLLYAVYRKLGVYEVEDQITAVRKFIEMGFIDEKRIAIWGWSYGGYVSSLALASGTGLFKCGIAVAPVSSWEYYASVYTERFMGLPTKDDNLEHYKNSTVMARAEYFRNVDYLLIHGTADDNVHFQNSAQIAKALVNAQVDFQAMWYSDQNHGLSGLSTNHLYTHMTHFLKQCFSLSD
Procedure: A soluble recombinant form of FAPα protein was prepared as follows. […] The cDNAs were verified by sequencing and inserted into the pVL1393 vector. […] The culture supernatant of High Five cells infected with recombinant FAPmCD8 baculovirus for four days was collected and cleared by ultracentrifugation. FAPmCD8 fusion protein was purified from such supernatants using an anti-FAPα monoclonal antibody immobilized on activated agarose beads (Pierce Chemical, Indianapolis, Ind., USA). […] The samples were immediately neutralized with a saturated Tris solution (Sigma Chemicals, St. Louis, Mo.) and protein-containing fractions were pooled.
Doxorubicin-peptide conjugate stock solutions (5 mM) were diluted with Hepes-buffered saline pH 7.4 to a final concentration of 50 to 100 μM. Twenty μl of the resulting solution was mixed with 50 μl of purified FAPmCD8 fusion protein (approximately 20 ng) described above and 30 μl Hepes-buffered saline, pH 7.4. The mixture was allowed to incubate at 37° C. for 1 day and release of free doxorubicin was measured in the HPLC assay described. Areas under each peak were quantified using the software package above and the initial value was set to 100%. The rate of release of free doxorubicin was measured by the appearance of a peak with the same retention time as free doxorubicin under these HPLC conditions. The areas under each peak were used to calculate the relative amounts of free doxorubicin to doxorubicin-peptide conjugate.

[3] = biological target: T5, cell-bound FAPα (FAP-expressing cell line HT1080 clone 33) (Homo sapiens, UniProt Q12884); test: Release of free doxorubicin by cell-bound FAPα, HT1080 clone 33 cells; assay type: cell-based; conditions: 1 μM conjugate, serum-free medium, 19 hours at 37° C.
T5 construct: expressed in transfected cells; host or cells: HT1080 fibrosarcoma cells, clone 33
T5 sequence (Q12884 1-760): T1 sequence (Q12884 1-760)
Procedure: (§3) Mammalian cell lines expressing recombinant FAPα were prepared. HT1080 fibrosarcoma cells, widely known and available from the DSMZ (German Collection of Microorganisms and Cell Cultures, Braunschweig, Germany) under the accession number DSMZ ACC 315, were maintained in a DMEM/F12 mix 50:50 containing 10% fetal bovine serum in an atmosphere of 95% air and 5% CO2. HT1080 cells were transfected with FAP.38 vector (WO 97/34927, Scanlan et al., loc. cit.) using the Lipofectin method according to the manufacturer's instructions (Gibco/BRL). Transfectants were selected for resistance to antibiotics (200 μg/ml Geneticin) and thereafter maintained in medium containing Geneticin. Individual colonies of resistant cells were picked, grown to confluence in 10 cm tissue culture petri dishes and tested for FAPα expression in an immunofluorescence assay using the FAPα-specific monoclonal antibody F19, as described (Garin-Chesa et al. (1990) Proc. Natl. Acad. Sci. USA 87(18), 7235-7239).
(§4) Samples were separated by reversed-phase high performance liquid chromatographic (HPLC) assay that was established to measure cleavage of doxorubicin-peptide conjugates. […] Free doxorubicin and doxorubicin-peptide conjugates were detected by fluorescence (excitation, 475 nm; emission, 585 nm) using a Waters 474 fluorescence detector. […]

[4] = tested on: parental HT1080 cell line; conditions: 1 μM conjugate, serum-free medium, 19 hours at 37° C.
Procedure: as §3, §4

SMILES: C[C@H](N)C(=O)N1CCC[C@H]1C(=O)Nc1ccc2c(C(F)(F)F)cc(=O)oc2c1 [Ala-Pro-7-amino-4-trifluoromethyl coumarin] (H-Ala-Pro-{AFC})
- cleavage by FAPα dimers (FAPα dimers): able to cleave

SMILES: COc1cc(NC(=O)C2CCCN2C(=O)C(C)N)cc2ccccc12 (stereo not drawn) [Ala-Pro-MNA]
- Kcat [1]: 35.7 s⁻¹
- Km [1]: 267 µM
- Cleavage specificity FAP (FAPα): +
- Cleavage specificity DPP IV (DPP-IV): +

SMILES: COc1cc(NC(=O)[C@@H]2CCCN2C(=O)[C@@H](N)CCCNC(=N)N)cc2ccccc12 [Arg-Pro-MNA]
- Kcat [1]: 50.6 s⁻¹
- Km [1]: 278 µM

SMILES: COc1cc(NC(=O)[C@@H]2CCCN2C(=O)[C@@H](N)C2CCCCC2)cc2ccccc12 [Chg-Pro-MNA]
- Kcat [1]: 53.7 s⁻¹
- Km [1]: 75 µM

SMILES: COc1cccc2c1C(=O)c1c(O)c3c(c(O)c1C2=O)CC(O)(C(=O)CO)CC3OC1CC(NC(=O)C2CCCN2C(=O)CNC(=O)C(C)NC(=O)C2CCCN2C(=O)OCC2c3ccccc3-c3ccccc32)C(O)C(C)O1 (stereo not drawn) [Fmoc-Pro-Ala-Gly-, Fmoc-Pro-Ala-Gly-Pro-Dox]
- Cleavage by FAP [2]: >95%

SMILES: COc1cc(NC(=O)[C@@H]2CCCN2C(=O)[C@@H](N)CCC(N)=O)cc2ccccc12 [Gln-Pro-MNA]
- Kcat [1]: 40.5 s⁻¹
- Km [1]: 273 µM

SMILES: NCC(=O)N1CCC[C@H]1C(=O)Nc1ccc2c(C(F)(F)F)cc(=O)oc2c1 [Gly-Pro-7-amino-4-trifluoromethyl coumarin] (H-Gly-Pro-{AFC})
- cleavage by FAPα dimers (FAPα dimers): able to cleave

SMILES: COc1cccc2c1C(=O)c1c(O)c3c(c(O)c1C2=O)CC(O)(C(=O)CO)CC3OC1CC(NC(=O)C2CCCN2C(=O)C(N)C2CCCCC2)C(O)C(C)O1 (stereo not drawn) [H-Chg-, H-Chg-Pro-Dox]
- Cleavage by FAP [2]: >95%

SMILES: COc1cccc2c1C(=O)c1c(O)c3c(c(O)c1C2=O)CC(O)(C(=O)CO)CC3OC1CC(NC(=O)C2CCCN2C(=O)CNC(=O)C(C)NC(=O)C2CCCN2)C(O)C(C)O1 (stereo not drawn) [H-Pro-Ala-Gly-, H-Pro-Ala-Gly-Pro-Dox]
- Cleavage by FAP [2]: ca. 11%

SMILES: COc1cc(NC(=O)[C@@H]2CCCN2C(=O)[C@@H](N)CCCCO)cc2ccccc12 [Hyn-Pro-MNA]
- Kcat [1]: 27.4 s⁻¹
- Km [1]: 69 µM

SMILES: CC[C@H](C)[C@H](N)C(=O)N1CCC[C@H]1C(=O)Nc1cc(OC)c2ccccc2c1 [Ile-Pro-MNA]
- Kcat [1]: 12.6 s⁻¹
- Km [1]: 43 µM

SMILES: NCCCC[C@H](N)C(=O)N1CCC[C@H]1C(=O)Nc1ccc2c(C(F)(F)F)cc(=O)oc2c1 [Lys-Pro-7-amino-4-trifluoromethyl coumarin] (H-Lys-Pro-{AFC})
- cleavage by FAPα dimers (FAPα dimers): able to cleave

SMILES: COc1cc(NC(=O)C2CCCN2C(=O)C(N)CCCCN)cc2ccccc12 (stereo not drawn) [Lys-Pro-MNA]
- Kcat [1]: 57.1 s⁻¹
- Km [1]: 530 µM

SMILES: COc1cc(NC(=O)[C@@H]2CCCN2C(=O)[C@@H](N)CC[S+](C)[O-])cc2ccccc12 (stereo partly drawn) [Met(O)-Pro-MNA]
- Kcat [1]: 26.9 s⁻¹
- Km [1]: 378 µM

SMILES: COc1cc(NC(=O)[C@@H]2CCCN2C(=O)[C@@H](N)CCSC)cc2ccccc12 [Met-Pro-MNA]
- Kcat [1]: 27.9 s⁻¹
- Km [1]: 127 µM

SMILES: COc1cc(NC(=O)[C@@H]2CCCN2C(=O)[C@@H]2CCCN2)cc2ccccc12 [Pro-Pro-MNA, Pro-Pro-4-methoxy-β-naphthylamide]
- Kcat [1]: 49.5 s⁻¹
- Km [1]: 154 µM

SMILES: COc1cc(NC(=O)[C@@H]2CCCN2C(=O)[C@@H](N)CO)cc2ccccc12 [Ser-Pro-MNA]
- Kcat [1]: 28.3 s⁻¹
- Km [1]: 872 µM

SMILES: COc1cc(NC(=O)[C@@H]2CCCN2C(=O)[C@@H](N)C(C)C)cc2ccccc12 [Val-Pro-MNA]
- Kcat [1]: 27.7 s⁻¹
- Km [1]: 95 µM

SMILES: COc1cc(NC(=O)C2CCCN2C(=O)CNC(=O)OCc2ccccc2)cc2ccccc12 (stereo not drawn) [Z-Gly-Pro-MNA]
- Cleavage specificity FAP (FAPα): +
- Cleavage specificity DPP IV (DPP-IV): −

SMILES: COc1cc(NC(=O)C2CCCN2C(=O)CNC(=O)C(C)NC(=O)C2CCCN2C(=O)OCc2ccccc2)cc2ccccc12 (stereo not drawn) [Z-Pro-Ala-Gly-Pro-MNA] (Cbz-PAGP-{NH(4-MeO-2-naphthyl)}; configuration not given here)
- Cleavage specificity FAP (FAPα): +
- Cleavage specificity DPP IV (DPP-IV): −

SMILES: COc1cccc2c1C(=O)c1c(O)c3c(c(O)c1C2=O)C[C@@](O)(C(=O)CO)C[C@@H]3O[C@H]1C[C@H](NC(=O)[C@@H]2CCCN2C(=O)CNC(=O)OCc2ccccc2)[C@H](O)[C@H](C)O1 [ZGP-Dox, N-Cbz-Gly-Pro-Doxorubicin]
- conversion of conjugate to free doxorubicin after incubation with purified FAPmCD8 fusion protein ([2]; 37° C., 1 day, approximately 20 ng FAPmCD8, Hepes-buffered saline pH 7.4, HPLC (FIG. 1)): could be converted to free doxorubicin
- Cleavage by FAP [2]: >95%
- conversion of conjugate to free doxorubicin by HT1080 clone 33 [3]: 81%
- conversion of conjugate to free doxorubicin by parental HT1080 cell line [4]: 9%

SMILES: COc1cccc2c1C(=O)c1c(O)c3c(c(O)c1C2=O)CC(O)(C(=O)CO)CC3OC1CC(NC(=O)C2CCCN2C(=O)CNC(=O)C(C)NC(=O)C2CCCN2C(=O)OCc2ccccc2)C(O)C(C)O1 (stereo not drawn) [ZPAGP-Dox, N-Cbz-Pro-Ala-Gly-Pro-Doxorubicin]
- Cleavage by FAP [2]: >95%
- conversion of conjugate to free doxorubicin by HT1080 clone 33 [3]: 43%
- conversion of conjugate to free doxorubicin by parental HT1080 cell line [4]: Little or no detectable conversion

SMILES: COc1cc(NC(=O)[C@@H]2CCCN2C(=O)[C@@H]2C[C@@H](O)CN2)cc2ccccc12 [trans-Hyp-Pro-MNA]
- Kcat [1]: 37.9 s⁻¹
- Km [1]: 254 µM
